Experimental data: US20250127912A1, “COMPOSITIONS FOR DELIVERY OF POLYNUCLEOTIDES” (miRecule, Inc., priority 2021, published 2025)
No end group written: not given here. PEG1000 = N-terminal 1 kDa PEG spacer; PEG5000 = N-terminal 5 kDa PEG spacer; PEG2000 = PEG polymer of 2000 Da

Legend:
[1] = Serum stability of miRNA mimic M30m3 alone or with cationic peptide/hybrid polymer in 5% human serum (TBE-urea gel); settings: calculated based on first order decay comparing two time points; for Serum Stability at N/P1: M30m3 with polymer at N/P charge ratio 1, 37 C; for Serum Stability at N/P2: M30m3 with polymer at N/P charge ratio 2, 37 C
[2] = Biodistribution of IR750-NCD5 cetuximab conjugates in mice with orthotopic UM-SCC-1^luc tumors; settings: 5 mg/kg IR750-NCD5 cetuximab conjugate, N/P of 1; 24 and 48 hours

Compound | Serum Stability at N/P1 [1] [h] | Serum Stability at N/P2 [1] [h] | delivery to the tumor (IR-750 fluorescence) [2] | liver and kidney delivery (IR-750 fluorescence) [2]
[PEG12]RRRRRRRRRRRR (N-terminal PEG12; MOD_RES 1 N-terminal PEG12 spacer) [PEG12PolyArg12] | – | – | markedly improves delivery to the tumor | reduces liver and kidney delivery
N=C(N)NCCCCN [Agmatine, reference compound] | 20.78 | 17.33 | – | –
[PEG12]RRRRRR [PEG12PolyArg6] | 19.74 | 27.96 | – | –
[PEG12]RdRdRdRdRdRdRdRdRd [PEG12PolyArg9d] | 24.7 | 29.03 | – | –
[PEG12][PEG12]RRRRRRRRRRRR (N-terminal PEG24; MOD_RES 1 N-terminal PEG24 spacer) [PEP24PolyArg12] | 21.21 | 39.41 | – | –
N=C(N)NCCC[C@H](NC(=O)[C@H](CCCNC(=N)N)NC(=O)[C@H](CCCNC(=N)N)NC(=O)[C@H](CCCNC(=N)N)NC(=O)[C@H](CCCNC(=N)N)NC(=O)[C@H](CCCNC(=N)N)NC(=O)[C@H](CCCNC(=N)N)NC(=O)[C@H](CCCNC(=N)N)NC(=O)[C@H](CCCNC(=N)N)NC(=O)[C@H](CCCNC(=N)N)NC(=O)[C@H](CCCNC(=N)N)NC(=O)[C@H](CCCNC(=N)N)NC(=O)[C@@H](N)CS)C(=O)N[C@@H](CS)C(=O)O [CPolyArg12C] | 34.91 | 18.1 | – | –
[PEG5000]-RRRRRRRRRRRR (PEG5000-RRRRRRRRRRRR) [PEG5000DaPolyArg12] | 14.08 | 20.91 | – | –
N=C(N)NCCC[C@H](N)C(=O)O [Arginine, reference compound] | 7.179 | 12.26 | – | –
M048 Alone: miR-30 mimic duplex M30m3 without polymer; guide SEQ ID NO: 38, passenger SEQ ID NO: 39 (guide UGUAAACAUCCUGCGACUGGAAG; sense UCCAGUCGAGGAUGUUUACA; modified_base 11 cm; modified_base 14 cm; modified_base 17 cm; modified_base 12 um; modified_base 18 um; modified_base 13 gm; modified_base 15 gm; modified_base 19 gm; modified_base 23 gm; modified_base 16 OTHER; 2'-O-methyladenosine; modified_base 22 OTHER; 2'-fluoroadenosine; misc_feature 21..22 phosphorothioate linkage; misc_feature 22..23 phosphorothioate linkage; misc_feature 1 amino C6 linker; modified_base 1 um; modified_base 2 cm; modified_base 3 cm; modified_base 19 cm; modified_base 18 OTHER; modified_base 20 OTHER) | 21.57 | – | – | –
[PEG1000]-RRRRRRRRRRRR (PEG1000-RRRRRRRRRRRR) [PEG1000DaPolyArg12] | 33.58 | 20.29 | – | –
[PEG12]RdRdRdRdRdRdRdRdRdRdRdRd (RRRRRRRRRRRR; N-terminal PEG12; D-arginines; MOD_RES 1 N-terminal PEG12 spacer; MOD_RES 1..12 D-Arginine) [PEG12PolyArg12{d}] | 57.63 | 90.35 | – | –
[PEG2000]-RRRRRRRRRRRR (PEG2000-RRRRRRRRRRRR) [PEG2000DaPolyArg12] | 15 | 46.67 | – | –

Further lines, with some results ahead:

Serum Stability at N/P1 [1] [h] | Serum Stability at N/P2 [1] [h] | Compound | delivery to the tumor (IR-750 fluorescence) [2] | liver and kidney delivery (IR-750 fluorescence) [2]
19.21 | 16.9 | RTRRTRRTRRTRRTRRTR [PolyArg12Tinsert] | – | –
25.6 | 18.06 | TTTTTTRRRRRRRRRRRR [T6PolyArg12] | – | –
25.99 | 31.12 | N=C(N)NCCC[C@H](NC(=O)[C@H](CCCNC(=N)N)NC(=O)[C@H](CCCNC(=N)N)NC(=O)[C@H](CCCNC(=N)N)NC(=O)[C@H](CCCNC(=N)N)NC(=O)[C@H](CCCNC(=N)N)NC(=O)[C@H](CCCNC(=N)N)NC(=O)[C@H](CCCNC(=N)N)NC(=O)[C@H](CCCNC(=N)N)NC(=O)[C@H](CCCNC(=N)N)NC(=O)[C@H](CCCNC(=N)N)NC(=O)[C@@H](N)CCCNC(=N)N)C(=O)N[C@@H](CS)C(=O)O [PolyArg12C] | – | –
18.95 | 12.98 | NCCCNCCCCNCCCN [Spermine, reference compound] | – | –
26.74 | 22.23 | NC(N)=NCCC[C@H](NC(=O)[C@H](CCCN=C(N)N)NC(=O)[C@H](CCCN=C(N)N)NC(=O)[C@H](CCCN=C(N)N)NC(=O)[C@H](CCCN=C(N)N)NC(=O)[C@@H](N)CCCN=C(N)N)C(=O)O [PolyArg6, RRRRRR] | – | –
19.96 | 19.2 | RRRRRRRRRRRR-[NHS Ester-BranchedPEG2kda] [PolyArg12bp2kDa] | – | –
